Assay results taken from PMC3556473, “Absorption, metabolism and excretion of [^14C]pomalidomide in humans following oral administration” (Cancer Chemotherapy and Pharmacology, 2012).
Like-named read-outs stand apart in the source and are kept apart here.

What was measured:
[1] = Plasma pharmacokinetics of pomalidomide and its enantiomers (chiral LC–MS/MS) after a single oral 2 mg dose of [14C]pomalidomide; format: in vivo, human
From the text: This was an open-label, in-patient, single-dose study in eight non-smoking healthy male adult volunteers conducted in accordance with Good Clinical Practices (GCP) and in compliance with the Declaration of Helsinki. The protocol and consent form were reviewed and approved by the appropriate institutional review board, and all study participants gave written informed consent, before initiation of any study-related procedure. Male subjects were eligible based on standard inclusion/exclusion criteria and were excluded if they had exposure to excess radiation or participated in a study involving radioisotopes within the previous 12 months. Subjects entered the study center on the day prior to dosing and remained at the center for up to 15 days following dosing or until the total radioactivity recovered in excreta was ≥90 % or the radioactivity recovered in excreta per day on three consecutive days was ≤1 % of the administered radioactive dose.
Each subject was administered a single oral suspension of 2 mg (100 μCi) of [^14C]pomalidomide in seltzer water (75 mL) followed by administration of an additional 140 mL of distilled water. Subjects were fasted for 8 h prior to and 4 h following dose administration. The residual radioactivity in the dosing vials was determined, and for six of the eight subjects (subjects 1–4, 6 and 8), the administered dose (1.93–2.02 mg) was close to the target dose of 2 mg. For subjects 5 and 7, a significant amount of radioactivity remained in the dose vial, resulting in administered doses of 1.59 and 1.51 mg, respectively. Calculations for percent of dose recovered in excreta were based on the actual administered doses.
Blood was collected into pre-chilled K3EDTA tubes at pre-dose, 0.5, 1, 1.5, 2, 2.5, 3, 4, 6, 8, 10, 12, 24, 48, 72, 120 and 168 h following dose administration. Blood for radioactivity counting was transferred to a clean tube and stored at or below 4 °C until analyzed. Plasma was harvested by centrifugation from the remaining blood. A plasma sample for radioactivity counting was transferred to a fresh tube. Three plasma aliquots were transferred to tubes containing citric acid for metabolite profiling and for determination of pomalidomide enantiomer concentrations in plasma. Urine was collected pre-dose, 0–6, 6-12, 12–24 and every 24 h thereafter up to 216 h (9 days) following dose administration and were stabilized with one volume of pH 1.5 Sorensen’s citrate buffer (25 mM sodium citrate buffer adjusted to pH 1.5). During the 12- to 24-h collection interval for subject 4, approximately 550 mL of urine was inadvertently poured into the wrong collection urinal and the sample was lost. […] Individual fecal samples were collected pre-dose and for up to 9 days following dose administration, and homogenized using approximately three volumes by weight of pH 1.5 Sorensen’s citrate buffer. All urine, fecal homogenates and plasma samples were stored at or below −20 °C until analyzed.
Plasma concentrations of each pomalidomide enantiomer were determined using a chiral LC–MS/MS assay. The pomalidomide enantiomers and ^13C-labeled pomalidomide (internal standard; IS) were extracted from plasma (stabilized with citric acid) using liquid–liquid extraction with methyl tertiary butyl ether. After transfer to a new tube, the solvent was evaporated, and the samples were reconstituted and injected for LC–MS/MS analysis using a Chiral AGP (50 × 3.0 mm, 5 μm; Chrom Tech, Inc., Apple Valley, MN) analytical column. Positive ions were measured in the multiple reaction monitoring (MRM) mode using a Sciex API-4000 tandem mass spectrometer equipped with a Turbo Ion Spray source. For the QC samples, the accuracy ranged from 91.0 to 106.9 %. For study samples, the amount of [^14C]-labeled material was accounted for when calculating the concentration of enantiomers in plasma using an appropriate correction factor. […]

CYP1A2 = molecular target: T1, CYP1A2 (Homo sapiens, UniProt P05177); test: In vitro CYP phenotyping (M17 formation from [14C]pomalidomide); format: in vitro ADME
T1 construct: purchased Cypex Ltd (Scotland, UK)
T1 sequence (P05177 1-516): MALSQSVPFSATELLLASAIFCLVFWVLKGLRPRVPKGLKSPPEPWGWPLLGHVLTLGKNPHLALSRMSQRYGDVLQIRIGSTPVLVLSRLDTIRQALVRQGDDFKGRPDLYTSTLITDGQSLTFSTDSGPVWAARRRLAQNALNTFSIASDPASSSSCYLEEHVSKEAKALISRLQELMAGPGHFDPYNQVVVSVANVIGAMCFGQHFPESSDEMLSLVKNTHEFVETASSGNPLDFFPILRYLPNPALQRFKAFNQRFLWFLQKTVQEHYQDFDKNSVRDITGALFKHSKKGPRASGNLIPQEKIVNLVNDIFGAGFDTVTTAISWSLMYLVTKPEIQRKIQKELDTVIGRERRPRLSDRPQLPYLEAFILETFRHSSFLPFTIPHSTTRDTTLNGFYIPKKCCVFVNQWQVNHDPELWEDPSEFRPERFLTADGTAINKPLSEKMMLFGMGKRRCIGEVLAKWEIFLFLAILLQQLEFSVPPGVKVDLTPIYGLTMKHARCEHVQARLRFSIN
Method: (§1) The CYP enzymes responsible for the formation of the hydroxy pomalidomide metabolites were investigated using 10 recombinant human CYP (rCYP) enzymes (CYP1A2, CYP2A6, CYP2B6, CYP2C8, CYP2C9, CYP2C19, CYP2D6, CYP2E1, CYP3A4 and CYP3A5) at 100 pmol/mL. Incubations were prepared using [^14C]pomalidomide (1 μM) in 0.1 M potassium phosphate buffer (pH 7.4) with 4 mM MgCl2, pre-incubated for 5 min at 37 °C. Reactions were initiated by the addition of 1 mM NADPH and continued for 30 or 60 min. Reactions were quenched with two volumes of ice-cold 0.1 % formic acid in acetonitrile containing [^13C5]pomalidomide as internal standard. The samples were mixed and centrifuged, and a subsample of the supernatant evaporated to dryness. The resulting pellet was reconstituted in 0.1 % formic acid in water and acetonitrile (4:1, v/v) and analyzed using HPLC with radiochromatography and/or LC–MS/MS. The rate of formation of the notable human metabolite M17 was calculated and scaled to human in vivo situation using relative abundance method.

CYP2C19 = molecular target: T2, CYP2C19 (Homo sapiens, UniProt P33261); test: as above; format: in vitro ADME
T2 construct: purchased Cypex Ltd (Scotland, UK)
Method: as §1

CYP2D6 = molecular target: T3, CYP2D6 (Homo sapiens, UniProt P10635); test: as above; format: in vitro ADME
T3 construct: purchased Cypex Ltd (Scotland, UK)
Method: as §1

CYP3A4 = molecular target: T4, CYP3A4 (Homo sapiens, UniProt P08684); test: as above; format: in vitro ADME
T4 construct: purchased Cypex Ltd (Scotland, UK)
Method: as §1

[2] = set-up: method as in earlier work; settings: ref 2 and unpublished data, cited from earlier work

T3 sequence (P10635 whole entry): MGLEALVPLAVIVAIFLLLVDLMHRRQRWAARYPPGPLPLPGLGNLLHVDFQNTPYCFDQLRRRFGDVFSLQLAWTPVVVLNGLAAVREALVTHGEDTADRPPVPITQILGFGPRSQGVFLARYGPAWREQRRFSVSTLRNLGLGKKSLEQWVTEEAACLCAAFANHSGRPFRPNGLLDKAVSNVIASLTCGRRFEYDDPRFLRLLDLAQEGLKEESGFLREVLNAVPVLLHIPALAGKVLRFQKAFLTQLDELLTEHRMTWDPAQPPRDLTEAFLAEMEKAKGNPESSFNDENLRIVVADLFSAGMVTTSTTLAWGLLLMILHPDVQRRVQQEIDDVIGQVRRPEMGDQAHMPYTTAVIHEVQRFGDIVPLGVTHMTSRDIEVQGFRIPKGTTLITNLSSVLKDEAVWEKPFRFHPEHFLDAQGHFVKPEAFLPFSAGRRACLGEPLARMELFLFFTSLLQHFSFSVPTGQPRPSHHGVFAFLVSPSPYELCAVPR
T4 sequence (P08684 whole entry): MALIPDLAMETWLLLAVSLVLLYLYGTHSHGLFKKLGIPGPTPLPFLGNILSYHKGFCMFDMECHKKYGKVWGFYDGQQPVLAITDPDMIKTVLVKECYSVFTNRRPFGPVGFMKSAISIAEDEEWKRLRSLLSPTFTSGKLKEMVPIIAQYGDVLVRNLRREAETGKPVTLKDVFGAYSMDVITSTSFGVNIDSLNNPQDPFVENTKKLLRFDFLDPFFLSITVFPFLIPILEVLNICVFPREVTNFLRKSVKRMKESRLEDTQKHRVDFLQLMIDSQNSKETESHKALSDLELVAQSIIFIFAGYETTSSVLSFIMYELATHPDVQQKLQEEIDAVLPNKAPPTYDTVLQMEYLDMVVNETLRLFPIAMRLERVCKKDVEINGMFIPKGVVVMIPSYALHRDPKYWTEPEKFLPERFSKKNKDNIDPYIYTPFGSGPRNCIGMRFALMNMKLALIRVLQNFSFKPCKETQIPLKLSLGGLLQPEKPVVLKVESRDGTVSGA
T2 sequence (P33261 whole entry): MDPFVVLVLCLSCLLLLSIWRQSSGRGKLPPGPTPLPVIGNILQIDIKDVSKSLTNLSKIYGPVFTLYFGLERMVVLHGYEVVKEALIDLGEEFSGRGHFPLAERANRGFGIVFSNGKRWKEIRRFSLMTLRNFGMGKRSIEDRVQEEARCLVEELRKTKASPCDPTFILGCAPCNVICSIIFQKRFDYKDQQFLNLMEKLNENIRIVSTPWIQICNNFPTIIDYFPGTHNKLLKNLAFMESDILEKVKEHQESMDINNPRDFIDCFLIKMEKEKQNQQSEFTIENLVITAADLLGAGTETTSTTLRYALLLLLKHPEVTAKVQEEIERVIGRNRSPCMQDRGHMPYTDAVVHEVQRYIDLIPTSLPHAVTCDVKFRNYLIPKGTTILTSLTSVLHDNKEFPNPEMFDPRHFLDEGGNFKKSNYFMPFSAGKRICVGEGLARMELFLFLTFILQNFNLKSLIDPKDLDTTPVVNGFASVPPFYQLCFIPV

SMILES	Cmax ([1]; human, healthy male subjects, mean ± SD (n = 8)) [ng/mL]	AUC(0-inf) ([1]; male, human, mean ± SD (n = 8)) [ng·h/mL]	AUC(0-t) ([1]; male, human, mean ± SD (n = 8)) [ng·h/mL]	half-life ([1]; male, human, po, 2 mg, mean ± SD (n = 8), read-out: t ½ (converted)) [min]	Tmax ([1]; male, human, po, 2 mg, median (min–max)) [h]	t ½ ([1]; mean ± SD (n = 8)) [h]	T max ([1]; median (min–max))	relative contribution of isozyme to the hepatic metabolism of pomalidomide (CYP1A2; CYP1A2, scaled by relative abundance in human liver) [%]	relative contribution of isozyme to the hepatic metabolism of pomalidomide (CYP2C19; CYP2C19, scaled by relative abundance in human liver) [%]	relative contribution of isozyme to the hepatic metabolism of pomalidomide (CYP2D6; CYP2D6, scaled by relative abundance in human liver) [%]	relative contribution of isozyme to the hepatic metabolism of pomalidomide (CYP3A4; CYP3A4, scaled by relative abundance in human liver) [%]	mean C max and AUC accumulation ratios ([2]; once-daily administrations, MM patients)	half-life ([2]; relapsed or refractory MM patients) [h]	rate of M17 formation (CYP1A2; rCYP1A2, [14C]pomalidomide 1 μM, 1-h incubation, based on peak area ratios, estimated) [pmol/min/pmol P450]	rate of M17 formation (CYP2C19; rCYP2C19, [14C]pomalidomide 1 μM, 1-h incubation, based on peak area ratios, estimated) [pmol/min/pmol P450]	rate of M17 formation (CYP2D6; rCYP2D6, [14C]pomalidomide 1 μM, 1-h incubation, based on peak area ratios, estimated) [pmol/min/pmol P450]	rate of M17 formation (CYP3A4; rCYP3A4, [14C]pomalidomide 1 μM, 1-h incubation, based on peak area ratios, estimated) [pmol/min/pmol P450]
Nc1cccc2c1C(=O)N(C1CCC(=O)NC1=O)C2=O (racemic) [Pomalidomide, (RS)-4-amino-2-(2,6-dioxo-piperidin-3-yl)-isoindoline-1,3-dione]	13 ± 3.9	189 ± 52	137 ± 67	672	< 3.5	8.9 ± 3.4	3.0 (2.0–6.0) h	54	11	4	30	< 2	6.5 to 8.0				
Nc1c(O)ccc2c1C(=O)N(C1CCC(=O)NC1=O)C2=O (centres unmarked) [Metabolite M17, 5-hydroxy pomalidomide]														0.0027	0.0024	0.0011	0.0008
